Test results as given in patent US8759309B2, “Polynucleotides that stimulate neutrophils” (Immunom Technologies, Inc., priority 2010, dated 2014).
Where “and” joins values, the source holds several entries; their conditions need not be identical. Equal entries are not always repeated. Entries after “also recorded” stand apart in the source; their conditions may differ.

Test system: neutrophils isolated from the kidneys of fathead minnows
Assay: Neutrophil oxidative (respiratory) burst, oxidation of DHR123 to rhodamine by flow cytometry
Assay type: cell-based, Pimephales promelas
Details: for % of PMA (oxidative burst): PMA at 1 μg/ml = 100%, * P<0.05; for stimulation of neutrophils (qualitative): exposure of neutrophils to individual oligos and their dimer
Description: Polynucleotides that stimulate neutrophils may be identified by exposing neutrophils isolated from the kidneys of fathead minnows to one or more polynucleotides complementary to an Initiation Site of Origin of Replication. The oxidation of the non-fluorescent dihydrorhodamine 123 (DHR123) to fluorescent rhodamine (Rh 123) may be determined indirectly by determining fluorescence intensity using spectrofluorometry in a flow cytometer. Rh 123 has an absorption maximum at 507 nm and a fluorescence maximum at 529 nm. Results of fluorescence intensity for the polynucleotide of the present invention and a control may be obtained and compared. The control serves as a reference point for measuring changes in phenotype such as fluorescence intensity. A control may include a neutrophil contacted with a known neutrophil stimulator, such as phorbol myristic acetate (PMA), and/or a neutrophil not exposed to the neutrophil stimulator or the polynucleotide of the present invention. The degree or amount of fluorescent intensity of each sample may be determined at a desired time point and the values of various samples compared. For example, a similar or an increase in the fluorescence intensity level of a sample from a neutrophil exposed to a polynucleotide of the present invention relative to the fluorescence intensity level of a sample from a neutrophil exposed to a known neutrophil stimulator would be indicative of the polynucleotide being able to stimulate neutrophils. For example, an increase in the fluorescence intensity level of a sample from a neutrophil exposed to a polynucleotide of the present invention relative to the fluorescence intensity level of a sample from a control neutrophil not exposed a known neutrophil stimulator or polynucleotide of the present invention would be indicative of the polynucleotide being able to stimulate neutrophils. Other suitable assays may be used to determine neutrophil stimulation, by measuring the uptake of oxygen or destruction of bacteria, including but not limited to. Measuring the release of specific cytokines can also be used to determine neutrophil activity. See: Scapini, P., Llapinet-Vera, J., Gasperini, S., Calzetti, F., Bazzoni, F., Cassatella, M., The Neutrophil as a Cellular Source of Cytokines; Immunol. Rev. 177, 195-203.
Killing microbes by the action of myeloperoxidase requires oxygen. Therefore, measuring the transient increase in oxygen uptake—the respiratory burst—by neutrophils reflects their antimicrobial activity. The respiratory burst, therefore, can be used as an indicator of the extent of neutrophil stimulation.
Oligo A can dimerize with itself which may explain why it had less broad stimulating activity than die Oligo B. It was determined by spectrofluorometry in a flow cytometer which recorded the oxidation of the non-fluorescent dihydrorhodamine 123 (DHR123) to fluorescent rhodamine during exposure of neutrophils to the oligos. Results were compared to the degree of fluorescence of a known powerful neutrophil stimulator, phorbol myristic acetate (PMA).
The degree of stimulation by PMA at a concentration of […] represented in the accompanying graph as 100%.
Neutrophils from fathead minnows were prepared and tested by the Institute for International Cooperation in Animal Biologics, Iowa State Univ., Ames, Iowa 50011 (See: Immunomodulatory Effects of B-glucan on Neutrophil Function in Fathead Minnows, Pimephales promelas Rafinesque, 1820, Dev. and Comp. Immunol. (2006 30; 817-830), Palić, D., et al). Oligos were prepared by Oligos, Etc., Portland, Oreg. 97298).

Compound	% of PMA (oxidative burst) (Oligo Conc. 0.03 μg/ml)	% of PMA (oxidative burst) (Oligo Conc. 0.3 μg/ml)	% of PMA (oxidative burst) (Oligo Conc. 3 μg/ml)	% of PMA (oxidative burst) (Oligo Conc. 30 μg/ml)	stimulation of neutrophils (qualitative)	neutrophil destruction (30 μg/ml)	oxidative burst compared with other oligos (P<0.05 denoted by *)	degree of stimulation (reference) (PMA at 1 μg/, set as 100%) [%]
5′AAUAggUgU3′ (AAUANGUGU; ribonucleotide, lower-case positions undefined, further chemistry not given here) [Oligo A, ribonucleotide complementary to the consensus core of bacterial Initiation Sites]	11.83 % of PMA	0 % of PMA	0 % of PMA	16.21 % of PMA	significant stimulation	–	–	–
5′UUAUCCACA3′ (UUAUNCACA; chemistry not fully specified) [Oligo B]	30 % of PMA and 29.57* % of PMA	18.32* % of PMA	33.02* % of PMA	14.93 % of PMA	significant stimulation	did not indicate neutrophil destruction	significantly higher than Oligo A at all tested concentrations; also recorded: significantly higher than mixtures of Oligos A and B at most concentrations	–
CCCCCCCCCCCCCC(=O)O[C@@H]1[C@@H](C)[C@@]2(O)[C@@H](C=C(CO)C[C@]3(O)C(=O)C(C)=C[C@@H]23)[C@@H]2C(C)(C)[C@]12OC(C)=O [PMA, phorbol myristic acetate, reference compound]	–	–	–	–	–	–	–	100
